Columns and labels:
[1] = tested on: LNCaP cells; assay: LDH activity in the cell culture medium; type: cell-based, human; settings: for effect on cytotoxicity (LDH activity): 24 hours, H-89 3 μmol/L, RpcAMP 100 μmol/L
Protocol: (§1) FIG. 3A is an image depicting data from Western blot analysis of lysates of LNCaP cells after treatment with sAC-specific or scrambled siRNA for 72 hours (left panel) or after treatment with sAC-specific or scrambled shRNA for 72 hours (right panel). FIGS. 3B-D are graphs and images which illustrate experimental data depicting the effects of siRNA or shRNA transfection on cell proliferation (FIG. 3B), LDH activity in the cell culture medium (relative units (r.u.)) (FIG. 3C), and cleavage of caspase-3 (FIG. 3D). […] The Western blot data are representative of five independent experiments with similar results.
(§2) FIGS. 5A-5E are graphs and images which illustrate experimental data depicting that sAC controls proliferation and the cell cycle in a PKA-independent and EPAC-dependent manner. FIGS. 5A-5C are graphs depicting statistical analyses of cell number per dish (FIG. 5A), LDH activity in the cell culture medium (relative units (r.u.)) (FIG. 5B), and G2 phase populations (FIG. 5C). Treatments (all 24 hours) were as follows: […], 100 mol/liter 8-pCPT-cAMP (8-pCPT), 100 mol/liter N6-benzoyl-cAMP (6-Bnz), 3 mol/liter H-89, or 100 mol/liter (Rp)-cAMP-S(RpcAMP). […] FIGS. 5D and 5E are images depicting Western blot analysis of the active form of Rap1 (Rap1-GTP) and phosphorylated forms of B-Raf performed with LNCaP cell lysates. Treatment conditions were similar to those described for FIGS. 5A-5C. Treatment was performed for 18 hours. All Western blot data are representative of four to six independent experiments with similar results.

[2] = tested on: LNCaP cells; assay: Western blot of Rap1-GTP, Rap1, phospho-B-Raf and B-Raf (EPAC activity); type: cell-based, human
Protocol: as §2
Production of sAC protein in the LNCaP and PC3 prostate carcinoma cell lines was analyzed by Western blot. In particular, cells were lysed in Laemmli buffer containing 2% SDS, 10% glycerol, 5% 2-mercaptoethanol, 0.002% bromphenol blue, and 0.0625 mol/liter Tris-HCl. Equal amounts of total proteins were separated on SDS-polyacrylamide gels and transferred to a nitrocellulose membrane. The following primary antibodies were used: sAC (clones R21 and R40; provided by Dr. J. Buck) and actin (Millipore, Billerica, Mass.). After incubation with peroxidase-linked and horseradish peroxidase-labeled secondary antibodies, specific bands were visualized by chemiluminescence using an ECL Plus kit. Equivalent sample loading was confirmed by stripping the membranes with RESTORE™ Western blot stripping buffer (Thermo Fisher Scientific, Rockford, Ill.), followed by treatment with anti-actin antibody.
To test the role of EPAC in proliferation control, the effects of inhibition of sAC on EPAC activity in LNCaP cells was examined.

[3] = tested on: LNCaP cells; assay: FACS-based cell cycle analysis; set-up: species or system human; settings: for effect on distribution of the cell population within the cell cycle: 24 hours, H-89 3 μmol/L, RpcAMP 100 μmol/L
Source text: (§3) Treatment conditions were similar to those described for FIGS. 4A-4D. All Western blot data are representative of three to five independent experiments with similar results.
as §2
To understand the mechanisms responsible for the anti-proliferative effect of sAC inhibition, cell cycle analysis was performed using FACS-based cell cycle analysis. Specifically, LNCaP cells were fixed with 70% alcohol, stained with propidium iodide, and treated with RNase (BD Biosciences, San Jose, Calif.). DNA content was analyzed using a FACSCALIBUR™ flow cytometer (BD Biosciences, San Jose, Calif.) and FLOWJO™ software.

[4] = tested on: LNCaP cells; assay: Cell proliferation (cell number per dish); type: cell-based, human; settings: for effect on proliferation in cells treated with the sAC inhibitor KH7: co-treatment with KH7, 24 hours; for effect on proliferation: LNCaP control cells, H-89 3 μmol/L, RpcAMP 100 μmol/L
Protocol: (§4) FIG. 2 is a graph which illustrates experimental data depicting the effects of the sAC inhibitor KH7 on prostate cancer cell proliferation. Statistical analyses are presented for cellular cAMP content and cell number per dish (starting density: 150,000 cells/dish) 24 hours after KH7 treatment. Values are the mean±SEM (n=5-8). *p<0.05 vs. 0 μmol/L KH7.
as §1, §2
(§5) The androgen-sensitive LNCaP (ATCC-Nr. CRL-1740D) human prostate carcinoma cell line, the androgen-insensitive PC3 (ATCC-Nr. CRL-1435D) human prostate carcinoma cell line, and neuroblastoma cell line SH-SY5Y (ATCC-Nr. CRL-2266) were purchased from the American Type Culture Collection, and human normal prostate epithelial cell line PNT2 was purchased from Sigma-Aldrich (Cat. Nr. 95012613). Cells were expanded and frozen in aliquots within four weeks of purchase. Cells were thawed and cultured for no more than three further passages. PNT2 cells were cultured in medium RPMI1640 supplemented with 10% fetal calf serum, glutamine and antibiotics. All other cells were cultured in Dulbecco's modified Eagle's medium that was supplemented with 5% fetal calf serum, glutamine, and antibiotics. The cells (1.5×10^5) were seeded in culture medium with 2% fetal calf serum 24 hours prior to each experiment.
To further substantiate the role of sAC in cell growth and death, the sAC gene expression/sAC protein production was suppressed in LNCaP cells. Two different methods of sAC knockdown, lipofectamine-based transfection with sAC-specific siRNA or adenoviral transfection with shRNA, were used to further rule out the possibility of KH7 off-target effects. For lipofectamine-based siRNA transfection, LNCaP cells were treated with siRNA duplexes that consisted of four different predesigned sequences targeting the human sAC mRNA sequence (GenBank Accession No. NM_001167749; Dharmacon, Lafayette, Colo.; catalogue no. L-006353-00,). In the control group, cells were treated with scrambled non-targeting siRNA (Dharmacon, Lafayette, Colo.; catalogue no. D-001810-10). Cells were transfected following the manufacturer's instructions. Briefly, cells were seeded 1 day before transfection in Dulbecco's modified Eagle's medium that was supplemented with 2% fetal calf serum without antibiotics.

[5] = tested on: PC3 cells; assay: Cellular cAMP content after KH7 treatment; type: cell-based, human; settings: PC3, 24 hours, dose-dependent
Protocol: as §4
as §5, with “experiment. […]” for “experiment.”

[6] = tested on: LNCaP cells; assay: Cellular cAMP content after KH7 treatment; type: cell-based, human; settings: 24 hours, dose-dependent
Protocol: as §4
as §5, with “experiment. […]” for “experiment.”

[7] = tested on: LNCaP cells; assay: Caspase-3 cleavage (Western blot); type: cell-based, human
Protocol: as §1, §3
Production of sAC protein in the LNCaP and PC3 prostate carcinoma cell lines was analyzed by Western blot. In particular, cells were lysed in Laemmli buffer containing 2% SDS, 10% glycerol, 5% 2-mercaptoethanol, 0.002% bromphenol blue, and 0.0625 mol/liter Tris-HCl. Equal amounts of total proteins were separated on SDS-polyacrylamide gels and transferred to a nitrocellulose membrane. The following primary antibodies were used: sAC (clones R21 and R40; provided by Dr. J. Buck) and actin (Millipore, Billerica, Mass.). […]

[8] = tested on: soluble guanylyl cyclase; settings: up to 100 μmol/L; cited from earlier work
[9] = tested on: PC3 cells; assay: Cell proliferation (cell number per dish); type: cell-based, human; settings: PC3, 24 hours, dose-dependent
Protocol: as §4
as §5, with “experiment. […]” for “experiment.”

[10] = tested on: PC3 and LNCaP cells; assay: Cell growth and death analysis after 48 hours KH7 (LDH release, subG1, caspase-3 cleavage); type: cell-based, human; settings: 20 μmol/L
Source text: as §5
Treatment with KH7 reduced the intracellular cAMP content and suppressed cell proliferation in a dose-dependent manner in both cell lines with a maximal effect at 20 μmol/L, as shown in FIG. 2.

[11] = tested on: tmAC; settings: up to 100 μmol/L; cited from earlier work
[12] = tested on: LNCaP cells; assay: Western blot of proteins controlling cell cycle progression (cyclins, CDK1); settings: sAC inhibition
Protocol: Production of sAC protein in the LNCaP and PC3 prostate carcinoma cell lines was analyzed by Western blot. […] Equal amounts of total proteins were separated on SDS-polyacrylamide gels and transferred to a nitrocellulose membrane. […] After incubation with peroxidase-linked and horseradish peroxidase-labeled secondary antibodies, specific bands were visualized by chemiluminescence using an ECL Plus kit.
To investigate how sAC controls the G2/M transition, the expression of various cyclins and CDK1 was examined via Western blot as described above using the following primary antibodies: CDK1, phospho-CDK1, cyclin B1, cyclin D1, cyclin D3, and cyclin E2.

[13] = co-treatment with KH7, 24 hours

## Nc1ncnc2c1nc(Sc1ccc(Cl)cc1)n2[C@@H]1O[C@@H]2COP(=O)(O)O[C@H]2[C@H]1O [8-pCPT, 8-pCPT-cAMP]
[1]; [13]
  effect on LDH release induced by sAC inhibition: prevented
[2]; co-treatment with KH7
  effect on KH7-induced change of Rap1-GTP expression: reversed
[3]; [13]
  effect on cell cycle block induced by sAC inhibition: prevented
[4]; LNCaP
  effect on proliferation in cells treated with the sAC inhibitor KH7: prevented

## O=S(=O)(NCCNC/C=C/c1ccc(Br)cc1)c1cccc2cnccc12 [H-89]
[1]
  effect on cytotoxicity (LDH activity): no effect
[3]
  effect on distribution of the cell population within the cell cycle: no effect
[4]; 24 hours
  effect on proliferation: no effect

## CC(Sc1nc2ccccc2[nH]1)C(=O)N/N=C/c1cc(Br)ccc1O (stereo not drawn) [KH7, (E)-2-(1H-benzo[d]imidazol-2-ylthio)-N′-(5-bromo-2-hydroxybenzylidene)propanehydrazide]
[5]
  reduction of intracellular cAMP content, concentration of maximal effect: 20 µmol/L
[6]
  reduction of intracellular cAMP content, concentration of maximal effect: 20 µmol/L
[2]; 18 hours
  Rap1-GTP (active form of Rap1) expression: significantly depleted
  phosphorylation of B-Raf: suppressed
[2]; KH7 treatment, n=6, 0.79+0.01 in control
  expression of Rap1, optical band density as ratio to actin band density: 0.81+0.07
[2]; KH7 treatment, n=8, 1.13+0.06 in control
  expression of B-Raf, optical band density as ratio to actin band density: 1.02+0.04
[7]; time course over 48 hours
  time at which cleavage of caspase-3 first appeared: 24 h
[3]; 24 hours, or siRNA transfection
  effect on cell cycle phases: cell cycle arrest at the G2 phase
[3]; time course over 48 hours
  time at which percentage of cells in G2-phase reached maximal value: 24 h
  time at which percentage of cells in G2-phase started to rise: 12 h
[8]
  effect on soluble guanylyl cyclase: no effect
[4]; LNCaP, 24 hours, dose-dependent
  suppression of cell proliferation, concentration of maximal effect: 20 µmol/L
[9]
  suppression of cell proliferation, concentration of maximal effect: 20 µmol/L
[10]
  apoptosis (subG1 population and cleavage of caspase-3): apoptosis
[11]
  effect on tmAC: no effect
[12]
  expression of cyclin D1: not altered
  expression of cyclin D3: not altered
  expression of cyclin E2: not altered

## O=C(Nc1ncnc2c1ncn2[C@@H]1O[C@@H]2COP(=O)(O)O[C@H]2[C@H]1O)c1ccccc1 [N^6-benzoyl-cAMP]
[4]; 24 hours
  effect on proliferation: no effect
[4]; LNCaP
  effect on proliferation in cells treated with the sAC inhibitor KH7: no effect

## Nc1ncnc2c1ncn2[C@@H]1O[C@@H]2CO[P@@](O)(=S)O[C@H]2[C@H]1O [RpcAMP, (Rp)-cAMP-S]
[1]
  effect on cytotoxicity (LDH activity): no effect
[3]
  effect on distribution of the cell population within the cell cycle: no effect
[4]; 24 hours
  effect on proliferation: no effect

B1: shRNA: adenovirus-driven anti-sAC-directed shRNA, hairpin construct of SEQ ID NO: 10 targeting rat sAC mRNA (nucleic acid)
chain: GGGGTACCAAAAAAGTGGAAAGTGGAACGAAAGCATCTCTTGAATGCTTTCGTTCCACTTTCCACAAACAAGGCTTTTCTCCAAG
[1]; 72 hours
  LDH release after sAC knockdown: induced LDH release
[7]; 72 hours
  caspase-3 cleavage after sAC knockdown: led to caspase-3 cleavage
[4]; LNCaP, 72 hours, reduction from 6.37×10^5
  cell numbers after sAC knockdown: 3.56×10^5
